This note sets out measurements from patent US7495027B2, “3-aryl-4-hydroxyfuranone compounds and the human and animal health use thereof” (Wyeth, priority 2003, dated 2009).

In brackets after ≈: the same amount, converted by molar mass. Read-outs that look alike come from different tables or passages of the source. Bounds are passed on as bounds.

One test relates to Streptococci. Put plainly: Minimum inhibitory concentration, microdilution broth method, streptococci. The settings on record: S. pneumo GC 1894; Mueller-Hinton broth with 5% horse blood, 18-22 hours at 35° C. Format: cell-based. The method in brief:
(§1)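 Broth microdilution MIC per NCCLS M7-A5. Staphylococci and enterococci tested in Mueller-Hinton broth; streptococci in Mueller-Hinton broth with 5% lysed horse blood. Strains include clinical isolates resistant to methicillin, penicillin and/or vancomycin.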
(In general: Broth dilution looks for growth in wells or tubes with falling amounts of substance.)

The target of test [1] is E. coli Uridine-diphosphate-N-acetylmuramoyl-L-alanine: D-glutamate liease, MurD (Escherichia coli, UniProt P14900). Briefly: biochemical. The settings on record: (E) E. coli enzyme. Put shortly: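 Compound working solutions reach 100 μg/mL in 50 mM Tris/HCl (pH 8.5) after dilution of 10 mg/mL DMSO stocks; final level in the well not given here. Reaction buffer finals: 2 mM ATP, 50 mM MgCl2, 83 mM Tris/HCl, pH 8.0.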

Test [2] addresses T1, S. aureus Uridine-diphosphate-N-acetylmuramoyl-L-alanine: D-glutamate liease, MurD (Staphylococcus aureus, UniProt Q2FZ92).
T1 sequence (Q2FZ92 1-449): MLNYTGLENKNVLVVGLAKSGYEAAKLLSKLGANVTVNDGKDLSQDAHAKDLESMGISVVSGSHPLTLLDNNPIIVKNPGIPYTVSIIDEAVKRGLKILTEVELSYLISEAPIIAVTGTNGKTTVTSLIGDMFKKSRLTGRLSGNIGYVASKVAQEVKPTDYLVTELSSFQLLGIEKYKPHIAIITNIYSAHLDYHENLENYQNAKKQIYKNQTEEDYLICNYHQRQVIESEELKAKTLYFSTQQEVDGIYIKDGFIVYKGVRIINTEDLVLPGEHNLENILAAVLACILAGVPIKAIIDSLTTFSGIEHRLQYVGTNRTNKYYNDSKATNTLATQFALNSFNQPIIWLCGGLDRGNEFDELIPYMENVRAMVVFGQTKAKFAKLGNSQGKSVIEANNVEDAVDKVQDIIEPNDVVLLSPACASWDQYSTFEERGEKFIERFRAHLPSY
Put plainly: biochemical. The settings on record: (S) S. aureus enzyme. The method in brief:
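Test solutions, 10 mg/mL stocks in DMSO, were brought to 100 μg/mL with 50 mM Tris/HCl (pH 8.5). Their inhibition of MurD, the enzyme of the fourth cell wall biosynthesis step, was measured.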

The subject of another test is staphylococci. Put plainly: Minimum inhibitory concentration, microdilution broth method, staphylococci. Format: cell-based. Particulars: Mueller-Hinton broth, 18-22 hours at 35° C.; for MIC: Staphylococcus aureus. The method in brief: as §1
Test [3] has as its target E. coli Uridine-diphosphate-N-acetvimuramoyl: L-alanine lipase, MurC (Escherichia coli, UniProt P17952). Put plainly: Inhibitory activity against MurC (E. coli). The class given is biochemical.
[4] abbreviates: S. aureus GC 1131, read-out: MIC S. aureus GC 1131.
Where [5] appears, read: S. aureus GC 4543, read-out: MIC S. aureus GC 4543.
Where [6] appears, read: (E) E. coli enzyme, read-out: MurC IC50 (converted).

Chain of E. coli Uridine-diphosphate-N-acetvimuramoyl: L-alanine lipase, MurC (P17952 whole entry): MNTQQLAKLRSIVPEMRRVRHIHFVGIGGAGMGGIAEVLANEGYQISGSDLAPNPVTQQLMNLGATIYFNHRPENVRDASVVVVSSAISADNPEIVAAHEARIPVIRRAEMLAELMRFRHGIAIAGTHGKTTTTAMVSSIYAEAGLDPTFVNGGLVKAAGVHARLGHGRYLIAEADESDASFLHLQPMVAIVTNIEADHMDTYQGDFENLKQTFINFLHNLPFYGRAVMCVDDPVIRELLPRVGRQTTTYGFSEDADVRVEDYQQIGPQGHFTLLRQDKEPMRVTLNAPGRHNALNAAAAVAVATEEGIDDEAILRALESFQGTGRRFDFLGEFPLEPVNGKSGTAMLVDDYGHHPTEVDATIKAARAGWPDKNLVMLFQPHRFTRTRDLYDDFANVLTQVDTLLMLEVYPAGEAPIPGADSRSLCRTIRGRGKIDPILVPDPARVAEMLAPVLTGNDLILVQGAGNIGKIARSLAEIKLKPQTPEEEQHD
Chain of E. coli Uridine-diphosphate-N-acetylmuramoyl-L-alanine: D-glutamate liease, MurD (P14900 whole entry): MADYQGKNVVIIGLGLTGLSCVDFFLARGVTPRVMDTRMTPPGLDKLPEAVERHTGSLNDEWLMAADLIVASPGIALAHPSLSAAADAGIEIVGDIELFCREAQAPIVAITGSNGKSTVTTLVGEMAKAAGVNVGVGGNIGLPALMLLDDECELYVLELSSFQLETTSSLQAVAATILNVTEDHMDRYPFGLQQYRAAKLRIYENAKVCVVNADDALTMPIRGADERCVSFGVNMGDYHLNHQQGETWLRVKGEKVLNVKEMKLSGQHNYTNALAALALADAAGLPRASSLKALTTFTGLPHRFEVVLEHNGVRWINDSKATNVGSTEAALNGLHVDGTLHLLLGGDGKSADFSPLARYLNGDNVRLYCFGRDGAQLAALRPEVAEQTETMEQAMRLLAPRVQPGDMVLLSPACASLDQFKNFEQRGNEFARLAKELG

One may read the MIC as the lowest concentration that inhibits growth of the organism. As usually defined, the IC50 is the point on the concentration scale where inhibition reaches its midpoint. As to `O=C1O/C(=C\c2ccc(-c3ccccc3)cc2)C(O)=C1c1ccc(Cl)cc1` [Example 53], the MIC is 0.5 µg/mL (≈ 1.33 µM) in the test with Streptococci, 16 µg/mL (≈ 42.7 µM) in the test on staphylococci (setting [4]) and 16 µg/mL (≈ 42.7 µM) with staphylococci (setting [5]). In addition, the IC50 is 13.3 µM in test [1], 42.7 µM in test [2] and 13.3 µM in test [3] (setting [6]).

For `O=C1O/C(=C\c2ccc3ccccc3c2)C(O)=C1c1ccc(Cl)cc1` [Example 54], the figures for the MIC in the test on Streptococci, in the test with staphylococci (setting [4]) and with staphylococci (setting [5]) were less than 0.125 µg/mL, 8 µg/mL (≈ 22.9 µM) and 16 µg/mL (≈ 45.9 µM), respectively. For the same compound, the IC50 in test [1] was greater than 71.7 µM; in test [2], greater than 71.7 µM; in test [3] (setting [6]), 14.3 µM.

With `O=C1O/C(=C\c2ccc3ccccc3c2)C(O)=C1c1cccc2ccccc12` [Example 56], the figures for the MIC against Streptococci, in the test with staphylococci (setting [4]) and in the test on staphylococci (setting [5]) were 4 µg/mL (≈ 11 µM), 16 µg/mL (≈ 43.9 µM) and 32 µg/mL (≈ 87.8 µM), respectively. In addition, the IC50 in test [1] is greater than 68.6 µM; in test [2], 52.1 µM; in test [3] (setting [6]) it was 13.7 µM.

Take `O=C1O/C(=C\c2ccc(-c3ccccc3)cc2)C(O)=C1c1cc(Cl)cc(Cl)c1` [Example 67]: the MIC is less than 0.125 µg/mL against Streptococci and 1 µg/mL (≈ 2.44 µM) in the test on staphylococci (setting [4]). Moreover, the IC50 in test [1] is 22 µM; in test [2], 19.5 µM; in test [3] (setting [6]), 14.7 µM. Besides, in the test on staphylococci (S. aureus GC 4543), the “MIC S. aureus GC 4543” value stood at 0.5 µg/mL (≈ 1.22 µM).

Take `O=C1O/C(=C\c2cccc3ccccc23)C(O)=C1c1cc(Cl)cc(Cl)c1` [Example 70]: the MIC came to 0.5 µg/mL (≈ 1.3 µM) against Streptococci, 2 µg/mL (≈ 5.22 µM) in the test on staphylococci (setting [4]) and 1 µg/mL (≈ 2.61 µM) with staphylococci (setting [5]). In addition, the results for the IC50 in test [1], in test [2] and in test [3] (setting [6]) were 44.4 µM, 23.5 µM and 13 µM, respectively.

On to `O=C1O/C(=C\c2cccc3ccccc23)C(O)=C1c1ccc(C(F)(F)F)cc1` [Example 71], for which the MIC amounted to 0.5 µg/mL (≈ 1.31 µM) against Streptococci, 8 µg/mL (≈ 20.9 µM) in the test on staphylococci (setting [4]) and 8 µg/mL (≈ 20.9 µM) in the test with staphylococci (setting [5]). Further, the IC50 is greater than 65.4 µM in test [1], 62.8 µM in test [2] and 28.8 µM in test [3] (setting [6]).

On to `COc1cccc(C2=C(O)/C(=C/c3cccc4ccccc34)OC2=O)c1` [Example 72], for which the MIC against Streptococci is 32 µg/mL (≈ 92.9 µM); in the test with staphylococci (setting [4]), greater than 128 µg/mL; with staphylococci (setting [5]), greater than 128 µg/mL. Moreover, the IC50 in test [1], in test [2] and in test [3] (setting [6]) was greater than 72.6 µM in each case.

Regarding `COC(=O)c1ccc(C2=C(O)/C(=C/c3cccc4ccccc34)OC2=O)cc1` [Example 74], the figures for the MIC with Streptococci, in the test on staphylococci (setting [4]) and in the test on staphylococci (setting [5]) were 32 µg/mL (≈ 85.9 µM), 64 µg/mL (≈ 172 µM) and greater than 128 µg/mL, respectively. The IC50 in test [1] is greater than 67.1 µM; in test [2], greater than 67.1 µM; in test [3] (setting [6]), 51 µM.

For the compound `O=Cc1cccc(C2=C(O)/C(=C/c3cccc4ccccc34)OC2=O)c1` [Example 76], the results for the MIC in the test on Streptococci, with staphylococci (setting [4]) and in the test on staphylococci (setting [5]) were 64 µg/mL (≈ 187 µM), greater than 128 µg/mL and greater than 128 µg/mL, respectively. Besides, the IC50 in test [1] is 67.2 µM; in test [2], greater than 73 µM; in test [3] (setting [6]) it was 14.6 µM.

As for `O=C1O/C(=C\C2CCCCC2)C(O)=C1c1ccc(-c2ccccc2)cc1` [Example 100], the results for the MIC in the test with Streptococci, with staphylococci (setting [4]) and with staphylococci (setting [5]) were 64 µg/mL (≈ 185 µM), greater than 128 µg/mL and greater than 128 µg/mL, respectively. Also, the IC50 in test [1] was greater than 72.2 µM; in test [2] it was 69.3 µM; in test [3] (setting [6]) it was 37.5 µM.

As to `O=C1O/C(=C\c2cccnc2)C(O)=C1c1ccc(-c2ccccc2)cc1` [Example 101], the MIC with Streptococci is 64 µg/mL (≈ 187 µM); in the test on staphylococci (setting [4]), greater than 128 µg/mL; with staphylococci (setting [5]), greater than 128 µg/mL. The results for the IC50 in test [1], in test [2] and in test [3] (setting [6]) were greater than 73.2 µM, greater than 73.2 µM and 52.7 µM, respectively.

Take `Cc1ccc(/C=C2\OC(=O)C(c3ccc(-c4ccccc4)cc3)=C2O)s1` [Example 104]: the MIC was found to be 0.5 µg/mL (≈ 1.39 µM) in the test on Streptococci, 16 µg/mL (≈ 44.4 µM) in the test with staphylococci (setting [4]) and 32 µg/mL (≈ 88.8 µM) with staphylococci (setting [5]). For the same compound, the IC50 in test [1] was greater than 69.4 µM; in test [2], greater than 69.4 µM; in test [3] (setting [6]) it was 13.9 µM.

As to `O=C1O/C(=C\c2cccc(-c3cccc(Cl)c3)c2)C(O)=C1c1cccc(Cl)c1` [Example 134], the MIC is 1 µg/mL (≈ 2.44 µM) in the test on Streptococci, greater than 128 µg/mL in the test with staphylococci (setting [4]) and 1 µg/mL (≈ 2.44 µM) in the test on staphylococci (setting [5]). The “MurD IC50” value in test [1] was 6 µg/mL. Moreover, the IC50 in test [2] was 19.5 µM. Further, the “MurC IC50” value in test [3] ((E) E. coli enzyme) was 5 µg/mL.

Consider `O=C1O/C(=C\c2cccc(-c3cc(Cl)cc(Cl)c3)c2)C(O)=C1c1cc(Cl)cc(Cl)c1` [Example 136], for which the MIC against Streptococci, with staphylococci (setting [4]) and in the test on staphylococci (setting [5]) was 0.25 µg/mL (≈ 0.523 µM) in each case. Besides, the figures for the IC50 in test [1] and in test [2] were 12.5 µM and 20.9 µM, respectively. Besides, in test [3] ((E) E. coli enzyme), the “MurC IC50” value turned out to be 11 µg/mL.

On to `O=C1O/C(=C\c2ccc(C(F)(F)F)cc2)C(O)=C1c1ccc(-c2ccccc2)cc1` [R=H, R1=4-(biphenyl), R2=4-CF3—C6H4], for which the MIC in the test on Streptococci was less than 0.125 µg/mL; in the test with staphylococci (setting [4]), 8 µg/mL (≈ 19.6 µM); in the test on staphylococci (setting [5]) it was 8 µg/mL (≈ 19.6 µM). Also, the IC50 in test [1] is 29.4 µM; in test [2], greater than 61.2 µM; in test [3] (MurC IC50, (E) E. coli enzyme) it was 12.2 µM.

Consider `O=C1O/C(=C\c2ccc(-c3ccc(Cl)cc3)cc2)C(O)=C1c1ccc(Cl)cc1` [R=H, R1=4-Cl—C6H4, R2=4-(4′-Cl-biphenyl)], for which the results for the minimum inhibitory concentration (MIC) against Streptococci, in the test on staphylococci (setting [4]) and with staphylococci (setting [5]) were less than 0.125 µg/mL, 16 µg/mL (≈ 39.1 µM) and 8 µg/mL (≈ 19.5 µM), respectively. Moreover, the half-inhibitory concentration (IC50) in test [1] was 14.7 µM; in test [2], 19.5 µM; in test [3] (MurC IC50, (E) E. coli enzyme), 29.3 µM.

Turning to `O=C1O/C(=C\c2cccc3ccccc23)C(O)=C1c1ccc(-c2ccccc2)cc1` [R=H, R1=4-biphenyl, R2=1-naphthyl], the MIC in the test with Streptococci is 1 µg/mL (≈ 2.56 µM); with staphylococci (setting [4]), 8 µg/mL (≈ 20.5 µM); in the test with staphylococci (setting [5]), 4 µg/mL (≈ 10.2 µM). For the same compound, the IC50 in test [1] was greater than 64 µM; in test [2] it was 38.4 µM; in test [3] (MurC IC50, (E) E. coli enzyme), 15.4 µM.
